Laboratory results published in patent US20030134859A1 (SANKYO COMPANY, LIMITED, priority 2000, published 2003).

What was measured:
[1] = system: human colon cancer cells COL-2-JCK; test: Inhibition of colony forming activity in human colon cancer cells; type: cell-based; details: 1 μM test compound, 10 days, sum of colony areas vs control; for inhibition at 1 µM: Homo sapiens, 240 h, read-out: Inhibition Rate (%) against the colony forming activity
Outline: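 COL-2-JCK cells seeded at 300 cells/well and grown 10 days at 37 °C, 5% CO2 with compound at 1 μM final (0.1% DMSO). Colonies stained with crystal violet in formalin; inhibition % = (1 − treated/control colony area)×100.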

leptin production = test: Enhancing activity for leptin production in adipocytes (ELISA); type: cell-based, rat; details: leptin concentration as % of control group; for activity at 0.001 µM: 1 nm; for Facilitating activity to produce leptin: 24 hr
Outline: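 Collagenase-dispersed epididymal adipocytes from 6-week-old male Wistar Imamichi rats, cultured in DMEM/F-12 (1:1) with test compound at final 1 µM, 100 nM, 10 nM or 1 nM (0.1% DMSO) for 24 h at 37 °C, 5% CO2. Leptin in filtrate measured by ELISA; activity = treated/DMSO-control leptin × 100 (%).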

[2] = Rattus norvegicus, Adipocyte, 24 h, 1 μM, read-out: Facilitating activity to produce leptin
[3] = Rattus norvegicus, Adipocyte, 24 h, 100 nm, read-out: Facilitating activity to produce leptin
[4] = Rattus norvegicus, Adipocyte, 24 h, read-out: Facilitating activity to produce leptin

Row | Molecule | inhibition at 1 µM [1] | activity at 1 µM (leptin production; [2]) | also measured
1 | O=C(Nc1ccc(-c2ccccc2)cc1)c1cc([N+](=O)[O-])ccc1Cl [Example 2, N-(4-Phenylphenyl)-(2-chloro-5-nitrophenyl)carboxamide] | 8% | 113% | 
2 | COc1ccc(NC(=O)c2cc([N+](=O)[O-])ccc2Cl)cc1-c1ccccc1 [Example 6, N-(4-Methoxy-3-phenyl)phenyl-(2-chloro-5-nitrophenyl)carboxamide] | 22% | 108% | activity at 0.1 µM (leptin production; [3]): 111%
3 | O=C(Nc1ccccc1-c1ccccc1)c1cc([N+](=O)[O-])ccc1Cl [Example 7, N-(2-Phenylphenyl)-(2-chloro-5-nitrophenyl)carboxamide] | 24% |  | activity at 0.1 µM (leptin production; [3]): 114%
4 | N#Cc1ccc(NC(=O)c2cc([N+](=O)[O-])ccc2Cl)cc1 [Example 20, N-(4-Cyanophenyl)-(2-chloro-5-nitrophenyl)carboxamide] | 37% | 126% | activity at 0.001 µM (leptin production; [4]): 130%; activity at 0.01 µM (leptin production; Rattus norvegicus, Adipocyte, 24 h, 10 nm, read-out: Facilitating activity to produce leptin): 135%; activity at 0.1 µM (leptin production; [3]): 155%
5 | CC(C)(C)c1cc(NC(=O)c2cc([N+](=O)[O-])ccc2Cl)cc(C(C)(C)C)c1O [Example 29, N-(3,5-Di-t-butyl-4-hydroxyphenyl)-(2-chloro-5-nitrophenyl)carboxamide] | 41% | 142% | 
6 | Cc1ccccc1-c1csc(NC(=O)c2cc([N+](=O)[O-])ccc2Cl)n1 [Example 39, N-[4-(2-Methylphenyl)thiazol-2-yl]-(2-chloro-5-nitrophenyl)carboxamide] | 48% | 119% | activity at 0.1 µM (leptin production; [3]): 109%
7 | O=C(Nc1nc(-c2cccc3ccccc23)cs1)c1cc([N+](=O)[O-])ccc1Cl [Example 41, N-[4-(1-Naphthyl)thiazol-2-yl]-(2-chloro-5-nitrophenyl)carboxamide] | 55% |  | 
8 | CCc1ccc(-c2csc(NC(=O)c3cc([N+](=O)[O-])ccc3Cl)n2)cc1 [Example 44, N-[4-(4-Ethylphenyl)thiazol-2-yl]-(2-chloro-5-nitrophenyl)carboxamide] | 35% |  | 
9 | Cc1nc(NC(=O)c2cc([N+](=O)[O-])ccc2Cl)sc1C [Example 47] | 18% |  | 
10 | Cc1cccc(NC(=O)c2cc([N+](=O)[O-])ccc2Cl)n1 [Example 51, N-(6-Methylpyridin-2-yl)-(2-chloro-5-nitrophenyl)carboxamide] | 15% |  | 
11 | Cc1ccc(NC(=O)c2cc([N+](=O)[O-])ccc2Cl)nc1 [Example 52, N-(5-Methylpyridin-2-yl)-(2-chloro-5-nitrophenyl)carboxamide] | 17% |  | activity at 0.001 µM (leptin production; [4]): 111%
12 | O=C(Nc1cccc2cccnc12)c1cc([N+](=O)[O-])ccc1Cl [Example 57, N-(8-Quinolinyl)-(2-chloro-5-nitrophenyl)carboxamide] | 5% |  | 
13 | O=C(Nc1ccc(S(=O)(=O)Nc2nccs2)cc1)c1cc([N+](=O)[O-])ccc1Cl [Example 96, N-[4-(Thiazol-2-yl)aminosulfonyl]phenyl-(2-chloro-5-nitrophenyl)carboxamide] | 17% |  | 
14 | Cc1cc(NS(=O)(=O)c2ccc(NC(=O)c3cc([N+](=O)[O-])ccc3Cl)cc2)no1 [Example 99] |  |  | Inhibition Rate (%) against the colony forming activity [1]: 32.0%; Facilitating activity to produce leptin (leptin production; 1 μM): 113.9%
15 | O=C(Nc1ccc(S(=O)(=O)Nc2ccc(Cl)nn2)cc1)c1cc([N+](=O)[O-])ccc1Cl [Example 102, N-[4-[(6-Chloropyridazin-3-yl)aminosulfonyl]phenyl]-(2-chloro-5-nitrophenyl)carboxamide] | 26% |  | 
16 | N-[4-(Pyrrolidinylsulfonyl)phenyl]-(2-chloro-5-nitrophenyl)carboxamide [Example 152] |  |  | Inhibition Rate (%) against the colony forming activity [1]: 24.0%; Facilitating activity to produce leptin (leptin production; 100 nm): 116.4%
